This is an account of results in PubChem BioAssay AID2060337 (Molecular Pharmacology Branch, DTP, NCI, 2025).

In this assay the test system is 832693-133-R-J1-PDC multi-cell spheroids, viability. The experiment in a line: Anticancer human tumor 832693-133-R-J1-PDC patient-derived head and neck squamous carcinoma cell line growth inhibition [IpAb]. The conditions noted are these: for viability, T/C: stronger effect = lower value. The method, boiled down:
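Combinations with ipatasertib or abemaciclib were tested on tumour spheroids holding HUVEC (25%) and MSC (15%) alongside 60% malignant cells. Top concentration was at or near clinical Cmax (10 microM if undefined), descending in half-log steps.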

Where [1] appears, read: curve of first compound, second compound 0.1 µM.
Where [2] appears, read: curve of first compound, second compound 0.316 µM.
Setting [3] is: curve of first compound, second compound 1 µM.
The mark [4] stands for this setting: curve of first compound, second compound 3.16 µM.
Setting [5] is: curve of first compound, second compound 10 µM.
Where [6] appears, read: second compound 0.1 µM, first compound 0.0316 µM.
[7] abbreviates: second compound 0.1 µM, first compound 0.1 µM.
Where [8] appears, read: second compound 0.316 µM, first compound 0.0316 µM.
Setting [9] is: second compound 0.316 µM, first compound 0.1 µM.
The mark [10] stands for this setting: second compound 1 µM, first compound 0.0316 µM.
[11] abbreviates: second compound 1 µM, first compound 0.1 µM.
Where [12] appears, read: second compound 3.16 µM, first compound 0.0316 µM.
Where [13] appears, read: second compound 3.16 µM, first compound 0.1 µM.
Setting [14] is: second compound 10 µM, first compound 0.0316 µM.
Where [15] appears, read: second compound 10 µM, first compound 0.1 µM.
The mark [16] stands for this setting: second compound 0.1 µM, first compound 0.316 µM.
[17] abbreviates: second compound 0.1 µM, first compound 1 µM.
Setting [18] is: second compound 0.1 µM, first compound 3.16 µM.
Setting [19] is: second compound 0.1 µM, first compound 10 µM.
The mark [20] stands for this setting: second compound 0.316 µM, first compound 0.316 µM.
The mark [21] stands for this setting: second compound 0.316 µM, first compound 1 µM.
The mark [22] stands for this setting: second compound 0.316 µM, first compound 3.16 µM.
[23] abbreviates: second compound 0.316 µM, first compound 10 µM.
Where [24] appears, read: second compound 1 µM, first compound 0.316 µM.
[25] abbreviates: second compound 1 µM, first compound 1 µM.
Where [26] appears, read: second compound 1 µM, first compound 3.16 µM.
[27] abbreviates: second compound 1 µM, first compound 10 µM.

pIC50: −log10 of the molar value. Values joined by “and” are separate entries in the source; they are usually repeats but may differ in a detail not shown here. Equal values may be shown once. Where only a bound is given, the exact number is not on record here.
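Also: spheroids exposed to the drugs for one week before the viability readout.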
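For viability, T/C in this document: 100% = DMSO vehicle control wells.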

The term viability, T/C denotes the result in the treated group divided by that in the control group, in per cent. By pIC50 is commonly meant −log10 of the IC50, conventionally taken in molar units. Turning to `Cn1nccc1Nc1nccc(-c2ccn(C(CO)c3ccc(Cl)c(F)c3)c(=O)c2)n1` (stereo unspecified), the viability, T/C is, setting by setting: (compound 0.0316 µM) 97.1% and 93.1%; (compound 0.1 µM) 77% and 82.1%; (compound 0.316 µM) 64.1% and 70.2%; (compound 1 µM) 57.1% and 65.9%; (compound 3.16 µM) 34.3% and 33.6%; (compound 10 µM) 13% and 24.2%. Also, under “curve of compound”, the negative-log IC50 (pIC50) was 5.97 and 5.78.
Turning to `CC(C)n1nc(-c2ccc3oc(N)nc3c2)c2c(N)ncnc21` + CC(C)NCC(C(=O)N1CCN(c2ncnc3c2C(C)CC3O)CC1)c1ccc(Cl)cc1, the negative-log IC50 (pIC50) is, setting by setting: under setting [1], 7.10; under setting [2], under 7.00; under setting [3], under 7.00; under setting [4], under 7.00; under setting [5], under 7.00. For the same compound, the viability, T/C reads like this: (second compound 0.1 µM, first compound 0.000316 µM) 88.9%; (second compound 0.1 µM, first compound 0.001 µM) 90.7%; (second compound 0.1 µM, first compound 0.00316 µM) 82.2%; (second compound 0.1 µM, first compound 0.01 µM) 69.3%; under setting [6], 61%; under setting [7], 47.7%. Besides, the viability, T/C runs as follows: (second compound 0.316 µM, first compound 0.000316 µM) 67.5%; (second compound 0.316 µM, first compound 0.001 µM) 73.5%; (second compound 0.316 µM, first compound 0.00316 µM) 75.5%; (second compound 0.316 µM, first compound 0.01 µM) 88.4%; under setting [8], 81%; under setting [9], 52.2%. The viability, T/C reads like this: (second compound 1 µM, first compound 0.000316 µM) 59.4%; (second compound 1 µM, first compound 0.001 µM) 74.5%; (second compound 1 µM, first compound 0.00316 µM) 106%; (second compound 1 µM, first compound 0.01 µM) 97.2%; under setting [10], 71.2%; under setting [11], 56.7%. Besides, the viability, T/C (second compound 3.16 µM, first compound 0.000316 µM) was 68.9%; the viability, T/C (second compound 3.16 µM, first compound 0.001 µM) is 98.9%; the viability, T/C (second compound 3.16 µM, first compound 0.00316 µM) is 106%; the viability, T/C (second compound 3.16 µM, first compound 0.01 µM) was 69.2%; the viability, T/C under setting [12] is 66.1%; the viability, T/C under setting [13] is 63.9%. The viability, T/C is 77% (second compound 10 µM, first compound 0.000316 µM); 96.2% (second compound 10 µM, first compound 0.001 µM); 69.7% (second compound 10 µM, first compound 0.00316 µM); 45.4% (second compound 10 µM, first compound 0.01 µM); 53% under setting [14]; 51.5% under setting [15].
As to `CCCS(=O)(=O)Nc1ccc(F)c(C(=O)c2c[nH]c3ncc(-c4ccc(Cl)cc4)cc23)c1F` + CCN1CCN(Cc2ccc(Nc3ncc(F)c(-c4cc(F)c5nc(C)n(C(C)C)c5c4)n3)nc2)CC1, the negative-log IC50 (pIC50) is 5.30 (curve of first compound, second compound 0.01 µM); 5.46 (curve of first compound, second compound 0.0316 µM); 5.91 under setting [1]; over 7.50 under setting [2]; 7.11 under setting [3]. Besides, the viability, T/C is 97.9% (second compound 0.01 µM, first compound 0.0316 µM); 105% (second compound 0.01 µM, first compound 0.1 µM); 100% (second compound 0.01 µM, first compound 0.316 µM); 87.6% (second compound 0.01 µM, first compound 1 µM); 63.6% (second compound 0.01 µM, first compound 3.16 µM); 30.9% (second compound 0.01 µM, first compound 10 µM). Moreover, the viability, T/C was 88.7% (second compound 0.0316 µM, first compound 0.0316 µM); 88.4% (second compound 0.0316 µM, first compound 0.1 µM); 81.5% (second compound 0.0316 µM, first compound 0.316 µM); 74.9% (second compound 0.0316 µM, first compound 1 µM); 51.4% (second compound 0.0316 µM, first compound 3.16 µM); 28.3% (second compound 0.0316 µM, first compound 10 µM). The viability, T/C was 66.3% under setting [6]; 60.1% under setting [7]; 64.9% under setting [16]; 51.9% under setting [17]; 35.7% under setting [18]; 15.2% under setting [19]. Besides, the viability, T/C runs as follows: under setting [8], 44.8%; under setting [9], 51.9%; under setting [20], 40.4%; under setting [21], 36.9%; under setting [22], 26.6%; under setting [23], 13.4%. In addition, the viability, T/C is, setting by setting: under setting [10], 50.5%; under setting [11], 49.6%; under setting [24], 44.2%; under setting [25], 24.8%; under setting [26], 18.8%; under setting [27], 13.3%.
Regarding `C=CC(=O)N1CCN(c2nc(=O)n(-c3c(C)ccnc3C(C)C)c3nc(-c4c(O)cccc4F)c(F)cc23)C(C)C1` (stereo unspecified) + CC(C)NCC(C(=O)N1CCN(c2ncnc3c2C(C)CC3O)CC1)c1ccc(Cl)cc1, the negative-log IC50 (pIC50) was under 5.00 under setting [1]; 5.35 under setting [2]; 6.63 under setting [3]; 6.51 under setting [4]; 5.43 under setting [5]. For the same compound, the viability, T/C reads like this: under setting [6], 96.1%; under setting [7], 91.6%; under setting [16], 86%; under setting [17], 92.2%; under setting [18], 104%; under setting [19], 77.3%. The viability, T/C reads like this: under setting [8], 81.1%; under setting [9], 75.3%; under setting [20], 70.9%; under setting [21], 67.2%; under setting [22], 56.6%; under setting [23], 36.6%. Besides, the viability, T/C by setting is: under setting [10], 53.6%; under setting [11], 55%; under setting [24], 48.2%; under setting [25], 41.8%; under setting [26], 34.7%; under setting [27], 18.8%. In addition, the viability, T/C reads like this: under setting [12], 55.7%; under setting [13], 52.4%; (second compound 3.16 µM, first compound 0.316 µM) 49.1%; (second compound 3.16 µM, first compound 1 µM) 43%; (second compound 3.16 µM, first compound 3.16 µM) 36.8%; (second compound 3.16 µM, first compound 10 µM) 17%. In addition, the viability, T/C under setting [14] is 53.4%; the viability, T/C under setting [15] is 69%; the viability, T/C (second compound 10 µM, first compound 0.316 µM) is 65.8%; the viability, T/C (second compound 10 µM, first compound 1 µM) was 57.3%; the viability, T/C (second compound 10 µM, first compound 3.16 µM) was 56%; the viability, T/C (second compound 10 µM, first compound 10 µM) was 18.4%.
On to `Cn1ncc(Cl)c1-c1cc(C(=O)NC(CN)Cc2cccc(F)c2)sc1Cl` (stereo unspecified), for which the viability, T/C was 99.5% and 99.8% (compound 0.0316 µM); 89.4% and 102% (compound 0.1 µM); 74.4% and 79.5% (compound 0.316 µM); 73.6% and 68.3% (compound 1 µM); 85% and 86% (compound 3.16 µM); 0.3% and 0.39% (compound 10 µM). For the same compound, under “curve of compound”, the pIC50 was 5.30 and 5.29.
On to `CC(=O)c1c(C)c2cnc(Nc3ccc(N4CCNCC4)cn3)nc2n(C2CCCC2)c1=O`, for which the viability, T/C was 87.4% and 105% (compound 0.000949 µM); 87.3% and 96.4% (compound 0.003 µM); 79.2% and 84.6% (compound 0.00949 µM); 66.9% and 69.8% (compound 0.03 µM); 69.9% and 64.3% (compound 0.0949 µM); 51% and 55.9% (compound 0.3 µM). Moreover, the negative-log IC50 (pIC50) (curve of compound) is under 6.52.
